Assay results reported in US9359395B2, “Prodrugs of steroidal CYP17 inhibitors/antiandrogens” (Tokai Pharmaceuticals, Inc., priority 2009, dated 2016).

Columns and labels:
[1] = Oral bioavailability in rats; details: rat, in vivo, initial studies
AR = details: cited from earlier work
[2] = mice, cited from earlier work; for detectability in plasma at 8 hours / peak plasma levels: s.c. 50 mg/kg
[3] = tested on: androgen-dependent LAPC4 human prostate tumor xenograft; details: cited from earlier work; for inhibiting the growth of LAPC4 xenograft: in vivo

Which results are given for `C[C@]12CC[C@H](O)CC1=CCC1C2CC[C@]2(C)C(n3cnc4ccccc43)=CCC12` (stereo partly drawn) [Compound 5, 3-β-hydroxy-17-(1H-benzimidazole-1-yl)androsta-5,16-diene]?
bioavailability [1]: ~10%; AR antagonist activity (AR): potent pure AR antagonists; detectability in plasma at 8 hours [2]: neither was detectable; peak plasma levels [2]: 16.82 ng/mL; conversion into metabolite ([2]; metabolite tentatively identified as 17-(1H-benzimidazol-1-yl)androsta-3-one): rapidly converted into a metabolite; reduction in the mean final tumor volume compared with controls ([3]; 50 mg/kg, twice daily, P=0.00065): 93.8%; efficacy compared with castration ([3]; 50 mg/kg, twice daily): significantly more effective than castration; inhibiting the growth of LAPC4 xenograft [3]: very effective

With `C[C@]12CCC(=O)C=C1CCC1C2CC[C@]2(C)C(n3cnc4ccccc43)=CCC12` (stereo partly drawn) [Compound 6, 17-(1H-benzimidazole-1-yl)androsta-4,16-diene-3-one] as the compound, how does the AR antagonist activity (AR) read?
The AR antagonist activity was “potent pure AR antagonists”.

What about the “detectability in plasma at 8 hours” value [2] of the same compound?
The value was “neither was detectable”.

And the peak plasma levels [2]?
Its peak plasma levels is 5.15 ng/mL.

What about the “inhibiting the growth of LAPC4 xenograft” value [3] of the same compound?
Its value is “ineffective”.
